According to patent US10112895B2, “Antivirals against molluscum contagiosum virus” (priority 2014, dated 2018):
pEC50, pIC50, pKd: −log10 of the molar value. Entries after “also recorded” stand apart in the source; their conditions may differ. Like-named read-outs stand apart in the source and are kept apart here.

Legend:
mD4-VV hybrid virus [1] = assay: microbe, parasite or virus in culture; assay type: cell-based, vaccinia hybrid virus containing mD4 of MCV; conditions: for pEC50: Hybrid virus
vD4-VV rescue virus = assay: microbe, parasite or virus in culture; assay type: cell-based; conditions: Orthopoxvirus vaccinia, BSC-1, 16 h, read-out: EC50, plaque reduction of vD4-VV rescue virus
mD4-VV hybrid virus [2] = assay type: cell-based, vaccinia hybrid virus containing mD4 of MCV
[3] = Half-life stability in mouse liver microsomes; assay type: in vitro ADME; conditions: for half-life: mouse, liver microsomes
mD4 [4] = molecular target: T1, mD4 (Molluscum contagiosum virus, UniProt Q98260); assay: Thermal shift (differential scanning fluorimetry) assay with purified 6His-mD4; assay type: binding; conditions: difference to DMSO mock treatment
Method: Thermal shift assay. Thermal shift (differential scanning fluorimetry) assay was performed as previously described. Briefly, 5 μM purified 6His-mD4 was mixed with compounds in thin-wall PCR 96-plate wells at 20 μL total volume containing 25 mM phosphate buffer (pH 6.8), 0.2 M NaCl, 2.5% glycerol, 2% DMSO, 0.005% (w/v) Triton-X100, and 1× Sypro Orange. Fluorescence intensities were monitored using the Applied Biosystems 7500 Fast Real-Time PCR system (Carlsbad, Calif.) at 582 nm from 25-80 ° C. at a rate of 1° C./min To generate melting temperature (Tm), protein melting curves were plotted on GraphPad Prism and fitted to the Boltzmann sigmoidal model. Thermal shift (ΔTm) is the difference between the 2% DMSO mock-treatment and inhibitor treatment. All experiments were duplicated and repeated independently.

BSC-1 cells = conditions: as previously determined; read-out: cytotoxicity CC50 on BSC-1 cells; cited from earlier work
[5] = molecular target: mD4-dependent processive DNA synthesis (6His-mD4, vA20 and vE9) (Molluscum contagiosum virus, UniProt Q98260); assay: biochemical; parameters: species or system molluscum contagiosum virus / vaccinia virus
mD4 [6] = molecular target: T1, mD4; assay: Binding to immobilized mD4 by SPR (Surface Plasmon Resonance); conditions: steady-state response, 1:1 binding model, 0-250 μM, 1% DMSO; read-out: binding affinity KD to mD4 protein by SPR
Method: The binding of compound 2 to mD4 was determined by SPR. mD4 was immobilized onto a biosensor chip at ˜3500 RU, and compound 2 was injected at 0-250 μM in buffer with 1% DMSO. The binding affinity KD was determined from the plot of steady-state response (Req) against compound 2 concentrations and fitting to a 1:1 binding model (FIG. 10).

[7] = test system: 2-D keratinocyte cultures; assay: Toxicity on 2-D keratinocyte cultures; assay type: cell-based; conditions: at the concentrations used in the 3-D culture experiment
mD4-VV hybrid virus [8] = assay: mD4-VV infection of 3-D human skin organ culture (viral titer and histology); assay type: cell-based; conditions: for viral titer of mD4-VV in 3-D human skin organ culture: 3 days post infection, compared to DMSO drug vehicle
[9] = BSC-1, 16 h, read-out: EC50, plaque reduction of mD4-VV hybrid virus

T1 sequence (Q98260 1-226): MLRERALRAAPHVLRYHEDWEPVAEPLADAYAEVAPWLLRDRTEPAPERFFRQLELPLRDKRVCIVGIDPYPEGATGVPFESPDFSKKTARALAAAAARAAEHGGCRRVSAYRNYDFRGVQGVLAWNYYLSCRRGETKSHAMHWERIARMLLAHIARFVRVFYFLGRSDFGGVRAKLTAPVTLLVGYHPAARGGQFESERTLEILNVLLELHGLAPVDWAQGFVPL
Sequence of mD4-dependent processive DNA synthesis (6His-mD4, vA20 and vE9) (Q98260 1-226): as above

## Nc1nc2c(ncn2COCCO)c(=O)[nH]1 [acyclovir, reference compound]
mD4-VV hybrid virus [1]
  inhibitory effect in plaque reduction assay: no inhibitory effect

## c1ccc(COc2ccccc2CNc2ccc3[nH]ncc3c2)cc1 [Compound 14, N-[(2-benzyloxyphenyl)methyl]-1H-indazol-5-amine]
mD4-VV hybrid virus [1]; BSC-1, read-out: EC50 (mD4-VV)
  pEC50: 5.10

## O=c1[nH]c2ccc(NCc3ccccc3OCc3ccc(Cl)cc3)cc2[nH]1 [Compound 4, 5-[[2-[(4-chlorophenyl)methoxy]phenyl]methylamino]-1,3-dihydrobenzimidazol-2-one]
mD4-VV hybrid virus [1]; BSC-1, read-out: EC50 (mD4-VV)
  pEC50: 4.96

## c1ccc(COc2ccccc2CNc2ccc(-c3cnco3)cc2)cc1 [Compound 13, N-[(2-benzyloxyphenyl)methyl]-4-oxazol-5-yl-aniline]
mD4-VV hybrid virus [1]; BSC-1, read-out: EC50 (mD4-VV)
  pEC50: 4.84

## Oc1ccc(NCc2ccccc2OCc2ccccc2)cc1 [Compound 10, 4-[(2-benzyloxyphenyl)methylamino]phenol]
mD4-VV hybrid virus [1]; [9]
  pEC50: 4.85
mD4-VV hybrid virus [1]; BSC-1, read-out: EC50 (mD4-VV)
  pEC50: 4.45
vD4-VV rescue virus
  pEC50: 4.96
mD4-VV hybrid virus [2]
  mD4-VV genomic DNA accumulation: completely prevented
[3]
  half-life: 6.7 min
mD4 [4]; 10 μM compound
  Thermal shift (ΔTm) of 6His-mD4: 2.2 °C
mD4 [4]; 40 μM compound
  Thermal shift (ΔTm) of 6His-mD4: 3.3 °C
BSC-1 cells
  CC50: 175 µM
[5]
  pIC50: 4.55

## O=c1[nH]c2ccc(NCc3ccccc3OCc3ccc(F)cc3)cc2[nH]1 [Compound 6, 5-[[2-[(4-fluorophenyl)methoxy]phenyl]methylamino]-1,3-dihydrobenzimidazol-2-one]
mD4-VV hybrid virus [1]; BSC-1, read-out: EC50 (mD4-VV)
  pEC50: 4.86

## O=c1[nH]c2ccc(NCc3cc(Cl)ccc3OCc3ccccc3F)cc2[nH]1 [Compound 8, 5-[[5-chloro-2-[(2-fluorophenyl)methoxy]phenyl]methylamino]-1,3-dihydrobenzimidazol-2-one]
mD4-VV hybrid virus [1]; BSC-1, read-out: EC50 (mD4-VV)
  pEC50: 4.96

## O=[N+]([O-])c1cccc(COc2ccccc2CNc2ccccc2O)c1 [Compound 11, 2-[[2-[(3-nitrophenyl)methoxy]phenyl]methylamino]phenol]
mD4-VV hybrid virus [1]; BSC-1, read-out: EC50 (mD4-VV)
  pEC50: 4.75

## Oc1ccc(NCc2ccccc2OCc2ccccc2)c(F)c1 [Compound 12, 4-[(2-benzyloxyphenyl)methylamino]-3-fluoro-phenol]
mD4-VV hybrid virus [1]; BSC-1, read-out: EC50 (mD4-VV)
  pEC50: 4.71

## Oc1ccc(NCc2cc(Br)ccc2OCc2ccc(F)cc2)cc1 [Compound 1, 4-[[5-bromo-2-[(4-fluorophenyl)methoxy]phenyl]methylamino]phenol]
mD4-VV hybrid virus [1]; BSC-1, read-out: EC50 (mD4-VV)
  pEC50: 4.70

## O=c1[nH]c2ccc(NCc3cc(Br)ccc3OCc3ccccc3)cc2[nH]1 [Compound 7, 5-[(2-benzyloxy-5-bromo-phenyl)methylamino]-1,3-dihydrobenzimidazol-2-one]
mD4-VV hybrid virus [1]; BSC-1, read-out: EC50 (mD4-VV)
  pEC50: 4.96

## NS(=O)(=O)c1ccc(NCc2cc(Cl)ccc2OCc2ccccc2)cc1 [Compound 3, 4-[(2-benzyloxy-5-chloro-phenyl)methylamino]benzenesulfonamide]
mD4-VV hybrid virus [1]; BSC-1, read-out: EC50 (mD4-VV)
  pEC50: 4.86

## O=c1[nH]c2ccc(NCc3ccccc3OCc3ccccc3)cc2[nH]1 [Compound 2, 5-[(2-benzyloxyphenyl)methylamino]-1,3-dihydrobenzimidazol-2-one]
mD4-VV hybrid virus [1]; [9]
  pEC50: 5.52
mD4-VV hybrid virus [1]; BSC-1, read-out: EC50 (mD4-VV)
  pEC50: 5.00
mD4 [6]
  pKd: 4.48
[7]
  toxicity on 2-D keratinocyte cultures: not toxic
[3]; compound 2 versus compound 10
  increase of half-life in mouse liver microsomes above compound 10: greater than 5 fold
[3]
  half-life: 36 min
mD4-VV hybrid virus [8]
  viral titer of mD4-VV in 3-D human skin organ culture: blocks mD4-VV viral infection
mD4-VV hybrid virus [8]; listed as compound 2
  viral titer of mD4-VV in 3-D human skin organ culture: significant decline in the viral titer
mD4-VV hybrid virus [8]; H&E stained cross-section, 3 days after infection
  histological analysis of 3-D human skin organ culture infected with mD4-VV: abundant population of stained keratinocytes was observed; also recorded: protection of the 3-D human skin organ culture
[5]
  blocking processive DNA synthesis in vitro: specific blocking processive DNA synthesis in vitro

## O=[N+]([O-])c1cccc(COc2ccccc2CNc2ccc(O)cc2)c1 [Compound 9, 4-[[2-[(3-nitrophenyl)methoxy]phenyl]methylamino]phenol]
mD4-VV hybrid virus [1]; BSC-1, read-out: EC50 (mD4-VV)
  pEC50: 4.88
